Results from US8835556B2, “Hydrolytically stable maleimide-terminated polymers” (priority 2002, dated 2014).

Details: buffer
Description: Typically, such hydrolysis evaluations are carried out at pH 7.5 in phosphate buffer at room temperature and are measured by observing the UV absorption of the maleimide ring.
The half-life of a polymer maleimide can be determined by measuring the concentration of the maleimide-terminated polymer over time using HPLC or by observing the UV absorption of the maleimide ring.
Using HPLC analysis, the rate of hydrolytic degradation of the maleimide ring of several exemplary maleimide-terminated mPEG polymers (average molecular weight 5000 Da) was explored.
The following linkages between the maleimide and the PEG polymer segment were evaluated: amidoethylene (L1-AMDE), amidopentamethylene (L1-AMPE), amidocyclohexylmethyl (L1-MCH), oxybutyl (L3-TEME), oxyhexyl (L3-HEXA), oxyethyl (L3-ET), and oxypropyl (L3-TME).
Hydrolysis studies were conducted on several exemplary stabilized PEG-maleimides as described above in Example 7.

HALF-LIFE, IN HOURS [h] | Half-life [h] | Substance
64.6 | – | 1-N-maleimidomethyl-3-(methoxypoly(ethylene glycol)propionamidomethyl)cyclohexane
11.5 | 11.5 | mPEG (5K DA)-propylmaleimide [mPEG-TME-MAL]
20.6 | – | 1-(N-maleimidomethyl)-4-(methoxypoly(ethylene glycol)propionamidomethyl)cyclohexane
